These are literature values, as cited in patent US11517526B2, “Stabilised hypochlorous solutions and their medical cosmetic uses” (Clinical Health Technologies Ltd, priority 2019, dated 2022).

The conditions of series [1]: natural state, unless stabilised.

In general, half-life refers to the time needed for the level to fall by half in the phase considered. Consider `OCl` [hypochlorous acid (HOCl), hypochlorous acid], for which the “effectiveness as an antimicrobial relative to hypochlorite (OCl−)” value in the series with microbes is 80-100 times. The half-life in series [1] is 48 h.
